Laboratory results: US20200361914A1, “SUBSTITUTED BENZENE AND 6,5-FUSED BICYCLIC HETEROARYL COMPOUNDS” (Epizyme, Inc., priority 2014, published 2020)
Read-outs that look alike come from different tables or passages of the source.

Legend:
[1] = system: H3K27 trimethylation in WSU-DLCL2 cells; test: WSU-DLCL2 methylation assay (H3K27me3 ELISA); assay type: cell-based, Human; conditions: H3K27me3 normalised to total H3, read-out: EZH2 WSU ELISA IC50
Text: WSU-DLCL2 Methylation Assay
WSU-DLCL2 suspension cells are purchased from DSMZ (German Collection of Microorganisms and Cell Cultures, Braunschweig, Germany). RPMI/Glutamax Medium, Penicillin-Streptomycin, Heat Inactivated Fetal Bovine Serum, and D-PBS were purchased from Life Technologies, Grand Island, N.Y., USA. Extraction Buffer and Neutralization Buffer (5×) were purchased from Active Motif, Carlsbad, Calif., USA. Rabbit anti-Histone H3 antibody is purchased from Abcam, Cambridge, Mass., USA. Rabbit anti-H3K27me3 and HRP-conjugated anti-rabbit-IgG are purchased from Cell Signaling Technology, Danvers, Mass., USA. TMB “Super Sensitive” substrate is sourced from BioFX Laboratories, Owings Mills, Md., USA. IgG-free Bovine Serum Albumin is purchased from Jackson ImmunoResearch, West Grove, Pa., USA. PBS with Tween (10×PBST) was purchased from KPL, Gaithersburg, Md., USA. Sulfuric Acid is purchased from Ricca Chemical, Arlington, Tex., USA. Immulon ELISA plates were purchased from Thermo, Rochester, N.Y., USA. V-bottom cell culture plates are purchased from Corning Inc., Corning, N.Y., USA.V-bottom polypropylene plates were purchased from Greiner Bio-One, Monroe, N.C., USA.
WSU-DLCL2 suspension cells are maintained in growth medium (RPMI 1640 supplemented with 10% v/v heat inactivated fetal bovine serum and 100 units/mL penicillin-streptomycin) and cultured at 37° C. under 5% CO2. Under assay conditions, cells are incubated in Assay Medium (RPMI 1640 supplemented with 20% v/v heat inactivated fetal bovine serum and 100 units/mL penicillin-streptomycin) at 37° C. under 5% CO2 on a plate shaker.
WSU-DLCL2 cells are seeded in assay medium at a concentration of 50,000 cells per mL to a 96-well V-bottom cell culture plate with 200 μL per well. Compound (1 μL) from 96 well source plates is added directly to V-bottom cell plate. Plates are incubated on a titer-plate shaker at 37° C., 5% CO2 for 96 hours. After four days of incubation, plates are spun at 241×g for five minutes and medium was aspirated gently from each well of cell plate without disturbing cell pellet. Pellet is resuspended in 200 μL DPBS and plates are spun again at 241×g for five minutes. The supernatant is aspirated and cold (4° C.) Extraction buffer (100 μL) is added per well. Plates are incubated at 4° C. on orbital shaker for two hours. Plates are spun at 3427×g x 10 minutes. Supernatant (80 μL per well) is transferred to its respective well in 96 well V-bottom polypropylene plate. Neutralization Buffer 5×(20 μL per well) is added to V-bottom polypropylene plate containing supernatant. V-bottom polypropylene plates containing crude histone preparation (CHP) are incubated on orbital shaker x five minutes. Crude Histone Preparations are added (2 μL per well) to each respective well into duplicate 96 well ELISA plates containing 100 μL Coating Buffer (1×PBS+BSA 0.05% w/v). Plates are sealed and incubated overnight at 4° C. The following day, plates were washed three times with 300 μL per well 1×PBST. Wells are blocked for two hours with 300 μL per well ELISA Diluent ((PBS (1×) BSA (2% w/v) and Tween20 (0.05% v/v)). Plates are washed three times with 1×PBST. For the Histone H3 detection plate, 100 μL per well are added of anti-Histone-H3 antibody (Abcam, ab1791) diluted 1:10,000 in ELISA Diluent. For H3K27 trimethylation detection plate, 100 μL per well are added of anti-H3K27me3 diluted 1:2000 in ELISA diluent. Plates are incubated for 90 minutes at room temperature. Plates are washed three times with 300 μL 1×PBST per well. For Histone H3 detection, 100 μL of HRP-conjugated anti-rabbit IgG antibody diluted to 1:6000 in ELISA diluent is added per well. For H3K27me3 detection, 100 μL of HRP conjugated anti-rabbit IgG antibody diluted to 1:4000 in ELISA diluent is added per well. Plates are incubated at room temperature for 90 minutes. Plates are washed four times with 1×PBST 300 μL per well. TMB substrate 100 μL is added per well. […]

[2] = molecular target: wild-type PRC2 enzyme (EZH2 WT) (Homo sapiens, UniProt Q15910); test: PRC2 enzyme assay on peptide substrate, wild-type EZH2
Chain of wild-type PRC2 enzyme (EZH2 WT) (Q15910 whole entry): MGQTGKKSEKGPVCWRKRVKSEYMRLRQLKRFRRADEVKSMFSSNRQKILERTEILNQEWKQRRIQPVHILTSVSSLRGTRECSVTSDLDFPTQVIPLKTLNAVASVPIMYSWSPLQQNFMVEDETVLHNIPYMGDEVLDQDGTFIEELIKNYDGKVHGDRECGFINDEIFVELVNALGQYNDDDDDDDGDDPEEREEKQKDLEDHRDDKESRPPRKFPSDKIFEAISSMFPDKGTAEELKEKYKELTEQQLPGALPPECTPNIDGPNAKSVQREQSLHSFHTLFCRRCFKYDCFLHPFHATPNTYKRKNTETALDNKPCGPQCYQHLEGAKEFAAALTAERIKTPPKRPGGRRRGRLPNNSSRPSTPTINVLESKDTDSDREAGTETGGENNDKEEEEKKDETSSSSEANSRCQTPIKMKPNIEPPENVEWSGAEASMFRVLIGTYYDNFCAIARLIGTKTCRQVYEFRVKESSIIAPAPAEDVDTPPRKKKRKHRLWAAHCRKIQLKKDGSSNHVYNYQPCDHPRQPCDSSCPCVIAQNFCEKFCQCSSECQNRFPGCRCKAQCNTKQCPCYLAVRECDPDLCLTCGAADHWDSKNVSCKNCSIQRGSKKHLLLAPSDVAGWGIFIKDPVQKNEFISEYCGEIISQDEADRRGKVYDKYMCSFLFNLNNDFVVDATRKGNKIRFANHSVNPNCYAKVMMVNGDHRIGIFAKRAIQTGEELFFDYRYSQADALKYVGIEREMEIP
Chain of wild-type PRC2 enzyme (EZH2 WT) (O75530 whole entry partner): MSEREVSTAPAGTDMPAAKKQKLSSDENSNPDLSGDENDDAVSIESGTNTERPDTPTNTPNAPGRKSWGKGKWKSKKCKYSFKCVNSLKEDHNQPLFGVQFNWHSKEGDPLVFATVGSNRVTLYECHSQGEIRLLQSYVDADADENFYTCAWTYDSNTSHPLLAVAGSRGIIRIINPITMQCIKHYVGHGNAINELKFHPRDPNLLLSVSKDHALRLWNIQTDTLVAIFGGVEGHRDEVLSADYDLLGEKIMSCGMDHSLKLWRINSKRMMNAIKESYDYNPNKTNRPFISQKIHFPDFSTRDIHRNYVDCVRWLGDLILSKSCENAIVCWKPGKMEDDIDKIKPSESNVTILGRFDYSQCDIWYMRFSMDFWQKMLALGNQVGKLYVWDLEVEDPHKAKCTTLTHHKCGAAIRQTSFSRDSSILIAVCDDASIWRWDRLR
Chain of wild-type PRC2 enzyme (EZH2 WT) (Q15022 whole entry partner): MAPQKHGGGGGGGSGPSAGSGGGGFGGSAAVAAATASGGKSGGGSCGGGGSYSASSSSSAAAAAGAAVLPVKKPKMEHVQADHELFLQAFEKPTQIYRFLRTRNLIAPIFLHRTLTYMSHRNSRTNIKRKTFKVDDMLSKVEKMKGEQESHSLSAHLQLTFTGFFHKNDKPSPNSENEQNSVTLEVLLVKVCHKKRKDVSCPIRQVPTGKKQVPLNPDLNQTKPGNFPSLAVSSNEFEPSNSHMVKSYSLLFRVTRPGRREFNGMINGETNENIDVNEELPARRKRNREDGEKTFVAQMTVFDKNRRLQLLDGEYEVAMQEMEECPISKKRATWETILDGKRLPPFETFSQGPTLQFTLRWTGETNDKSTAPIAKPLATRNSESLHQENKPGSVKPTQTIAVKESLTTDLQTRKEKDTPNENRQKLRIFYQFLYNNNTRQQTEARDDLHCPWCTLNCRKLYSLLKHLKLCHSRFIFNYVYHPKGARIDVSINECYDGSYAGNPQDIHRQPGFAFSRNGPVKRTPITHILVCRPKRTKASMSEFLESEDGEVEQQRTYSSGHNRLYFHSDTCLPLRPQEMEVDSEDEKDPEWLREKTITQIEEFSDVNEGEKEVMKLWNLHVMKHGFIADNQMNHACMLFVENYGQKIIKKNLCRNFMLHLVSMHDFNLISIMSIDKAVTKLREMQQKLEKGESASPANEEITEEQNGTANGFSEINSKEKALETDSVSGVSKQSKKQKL
Chain of wild-type PRC2 enzyme (EZH2 WT) (Q09028 whole entry partner): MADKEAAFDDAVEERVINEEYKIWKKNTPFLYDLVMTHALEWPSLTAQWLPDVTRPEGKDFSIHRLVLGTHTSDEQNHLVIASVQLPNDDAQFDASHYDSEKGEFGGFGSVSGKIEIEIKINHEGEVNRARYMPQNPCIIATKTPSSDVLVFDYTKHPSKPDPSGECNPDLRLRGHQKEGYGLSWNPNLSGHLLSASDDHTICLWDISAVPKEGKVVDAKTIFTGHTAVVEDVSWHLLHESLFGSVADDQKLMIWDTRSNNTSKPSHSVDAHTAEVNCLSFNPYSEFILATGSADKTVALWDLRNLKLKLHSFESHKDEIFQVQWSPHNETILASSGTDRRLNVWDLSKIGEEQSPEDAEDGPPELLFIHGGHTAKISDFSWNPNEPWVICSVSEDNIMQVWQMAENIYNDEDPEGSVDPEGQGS
Text: (§1) S-adenosylmethionine (SAM), S-adenosylhomocyteine (SAH), bicine, KCl, Tween20, dimethylsulfoxide (DMSO) and bovine skin gelatin (BSG) can be purchased from Sigma-Aldrich at the highest level of purity possible. Dithiothreitol (DTT) was purchased from EMD. ^3H-SAM can be purchased from American Radiolabeled Chemicals with a specific activity of 80 C1/mmol. 384-well streptavidin Flashplates can be purchased from PerkinElmer.
(§2) Recombinant PRC2 Enzymes. Human PRC2 enzymes are purified as 4-component enzyme complexes co-expressed in Spodoptera frugiperda (sf9) cells using a baculovirus expression system. […] The EED subunit contains an N-terminal FLAG tag that is used to purify the entire 4-component complex from sf9 cell lysates. The purity of the complexes meets or exceeds 95% as determined by SDS-PAGE and Agilent Bioanalyzer analysis.
(§3) General Procedure for PRC2 Enzyme Assays on Peptide Substrates. The assays are all performed in a buffer consisting of 20 mM bicine (pH=7.6), 0.5 mM DTT, 0.005% BSG and 0.002% Tween20, prepared on the day of use. […] DMSO (1 μL) is added to columns 11, 12, 23, 24, rows A-H for the maximum signal control, and SAH, a known product and inhibitor of PRC2 (1 μL) is added to columns 11, 12, 23, 24, rows I-P for the minimum signal control. A cocktail (40 μL) containing the wild-type PRC2 enzyme and H3K27me0 peptide or any of the Y641 mutant enzymes and H3K27me2 peptide is added by Multidrop Combi (Thermo). The compounds are allowed to incubate with PRC2 for 30 min at 25° C., then a cocktail (10 μL) containing a mixture of non-radioactive and ^3H-SAM is added to initiate the reaction (final volume=51 μL). […] The assays are stopped by the addition of non-radioactive SAM (10 μL) to a final concentration of 600 μM, which dilutes the ^3H-SAM to a level where its incorporation into the peptide substrate is no longer detectable. 50 μL of the reaction in the 384-well polypropylene plate is then transferred to a 384-well Flashplate and the biotinylated peptides are allowed to bind to the streptavidin surface for at least 1h before being washed three times with 0.1% Tween20 in a Biotek ELx405 plate washer. The plates are then read in a PerkinElmer TopCount platereader to measure the quantity of ^3H-labeled peptide bound to the Flashplate surface, measured as disintegrations per minute (dpm) or alternatively, referred to as counts per minute (cpm).
(§4) Where dpm=disintegrations per minute, cmpd=signal in assay well, and min and max are the respective minimum and maximum signal controls.
(§5) Where top and bottom are the normally allowed to float, but may be fixed at 100 or 0 respectively in a 3-parameter fit. The Hill Coefficient normally allowed to float but may also be fixed at 1 in a 3-parameter fit. Y is the % inhibition and X is the compound concentration.

[3] = molecular target: Y641 mutant PRC2 enzyme (EZH2 Y641) (Homo sapiens, UniProt Q15910, Y641F); test: PRC2 enzyme assay on peptide substrate, Y641 mutant EZH2
Chain of Y641 mutant PRC2 enzyme (EZH2 Y641) (Q15910 whole entry Y641F): as the sequence (Q15910 whole entry) above, with Y641F counted along it
Chain of Y641 mutant PRC2 enzyme (EZH2 Y641) (O75530 whole entry partner): as the sequence (O75530 whole entry partner) above
Chain of Y641 mutant PRC2 enzyme (EZH2 Y641) (Q15022 whole entry partner): as the sequence (Q15022 whole entry partner) above
Chain of Y641 mutant PRC2 enzyme (EZH2 Y641) (Q09028 whole entry partner): as the sequence (Q09028 whole entry partner) above
Text: as §1, §2, §3, §4, §5

[4] = Homo sapiens, WSUDLCL2, 96 h, 96 hours incubation
[5] = Homo sapiens, WSUDLCL2, 96 hours incubation

| SMILES | IC50 [1, 4] | IC50 ([1]; 96 hours incubation) | IC50 [1, 5] | IC50 [2] | IC50 [3] |
| --- | --- | --- | --- | --- | --- |
| Cc1cc(C)c(CNC(=O)c2c(C)n(C(C)C3CCOCC3)c3ccccc23)c(=O)[nH]1 (racemic) [compound 19, N-((4,6-dimethyl-2-oxo-1,2-dihydropyridin-3-yl)methyl)-2-methyl-1-(1-(tetrahydro-2H-pyran-4-yl)ethyl)-1H-indole-3-carboxamide] | 1 to 10 µM |  |  |  |  |
| COc1cc(C)[nH]c(=O)c1CNC(=O)c1c(C)n(C(C)C2CCOCC2)c2ccccc12 (racemic) [compound 24, N-((4-methoxy-6-methyl-2-oxo-1,2-dihydropyridin-3-yl)methyl)-2-methyl-1-(1-(tetrahydro-2H-pyran-4-yl)ethyl)-1H-indole-3-carboxamide] | 1 to 10 µM |  |  |  |  |
| COc1cc(C)[nH]c(=O)c1CNC(=O)c1c(C)n(C(C)C2CCOCC2)c2ccccc12 (single isomer, unassigned) [24a, N-((4-methoxy-6-methyl-2-oxo-1,2-dihydropyridin-3-yl)methyl)-2-methyl-1-(1-(tetrahydro-2H-pyran-4-yl)ethyl)-1H-indole-3-carboxamide] |  | 10 to 50 µM |  |  |  |
| COc1cc(C)[nH]c(=O)c1CNC(=O)c1c(C)n(C(C)C2CCOCC2)c2ccccc12 (single isomer, unassigned) [24b, N-((4-methoxy-6-methyl-2-oxo-1,2-dihydropyridin-3-yl)methyl)-2-methyl-1-(1-(tetrahydro-2H-pyran-4-yl)ethyl)-1H-indole-3-carboxamide] |  | 1 to 10 µM |  |  |  |
| Cc1cc(C)c(CNC(=O)c2ccc(C(C)Oc3ccccc3)cc2C)c(=O)[nH]1 (centres unmarked) [compound 5, N-((4,6-dimethyl-2-oxo-1,2-dihydropyridin-3-yl)methyl)-2-methyl-4-(1-phenoxyethyl)benzamide] |  |  | 10 to 50 µM | 0.1 to 1 µM | 0.1 to 1 µM |
| Cc1cc(=O)c(CNC(=O)c2ccc(C(C)Oc3ccccc3)cc2C)c(C)[nH]1 (centres unmarked) [compound 6, N-((2,6-dimethyl-4-oxo-1,4-dihydropyridin-3-yl)methyl)-2-methyl-4-(1-phenoxyethyl)benzamide] |  |  | > 25 µM | > 50 µM | 10 to 50 µM |
| Cc1cc(C)c(CNC(=O)c2cc(Cl)c(C(C)Oc3ccccc3)cc2C)c(=O)[nH]1 (centres unmarked) [compound 12, 5-chloro-N-((4,6-dimethyl-2-oxo-1,2-dihydropyridin-3-yl)methyl)-2-methyl-4-(1-phenoxyethyl)benzamide] |  |  | > 25 µM | 0.1 to 1 µM | < 0.1 µM |
| Cc1cc(=O)c(CNC(=O)c2cc(Cl)c(Oc3cccc(-c4ccnnc4)c3C#N)cc2C)c(C)[nH]1 [compound 16, 5-chloro-4-(2-cyano-3-(pyridazin-4-yl)phenoxy)-N-((2,6-dimethyl-4-oxo-1,4-dihydropyridin-3-yl)methyl)-2-methylbenzamide] |  |  | > 25 µM |  |  |
| CCC(C)n1cc(C)c2c(C(=O)NCc3c(C)[nH]c(C)cc3=O)cc(-c3ccc(N4CCNCC4)nc3)cc21 (centres unmarked) [compound 25, 1-(sec-butyl)-N-((2,6-dimethyl-4-oxo-1,4-dihydropyridin-3-yl)methyl)-3-methyl-6-(6-(piperazin-1-yl)pyridin-3-yl)-1H-indole-4-carboxamide] |  |  | 10 to 50 µM | < 0.1 µM | < 0.1 µM |
| CCN(c1cc(-c2ccc(OCCOC)cc2)cc(C(=O)NC2CC(C)(C)NC(C)(C)C2)c1C)[C@H]1CC[C@H](N(C)C)CC1 [compound 33, 5-(((trans)-4-(dimethylamino)cyclohexyl)(ethyl)amino)-4′-(2-methoxyethoxy)-4-methyl-N-(2,2,6,6-tetramethylpiperidin-4-yl)-[1,1′-biphenyl]-3-carboxamide] |  |  | > 25 µM | 10 to 50 µM | 10 to 50 µM |
